How the values were obtained:
[1] = Biodistribution in rat organs and tissues (fluorescence); format: in vivo, Wistar rats; settings: 0.6 mg/kg i.v.
Method: (x) Biodistribution. Wistar rats (n=2) were anesthetized and compound 5 of the invention (0.6 mg/kg) was injected into their tail vein. The control group (n=2) was not treated with the sensitizer. At 30 min and 24 h after injection, rats (one for each time-point), were sacrificed and samples of the indicated organs or tissues (heart, liver, lung, spleen, kidney, brain, testes, skin, muscle and fat) were collected into and weighed in pre-weighted vials, immediately frozen on dry ice and stored at […] in the dark until analyzed. For examination, each sample was thawed, weighed again, and homogenized (Polytron, Kinematica GmbH or Ultra-Turrax) in ice-cold water. The vials were then frozen in liquid nitrogen and lyophilized. The lyophilized samples were extracted with methanol (5-10 ml) in an amount equivalent to the tissue weight, and then vortexed and centrifuged. The supernatant was collected and analyzed and fluorescence measured as described in (ix) above. The fluorescence of methanol and of tissue extracts from control animals were used as blanks.

[2] = test system: H5V mouse endothelial cells; assay: Phototoxicity (cytophototoxicity) on endothelial cells, Neutral Red viability; format: cell-based; settings: endothelial cell cultures, FIG. 3C
Method: (i) Cell culture. H5V mouse endothelial cells were cultured as monolayers in Dulbecco's modified Eagle's medium (DMEM)/F12 containing 25 mM HEPES, pH 7.4, 10% fetal calf serum (FCS), glutamine (2 mM), penicillin (0.06 mg/ml), and streptomycin (0.1 mg/ml) (hereinafter referred to as the “culture medium”). The cells were grown at 37° C. in an 8% CO2-humidified atmosphere.
(a) Cells. To determine the photodynamic efficacy, cells were cultured in 96-well plates (40×10^3/well) and incubated in the dark in culture medium containing increasing concentrations of sensitizers 5, 7, 9 and 11, for a period of 1 min to 8 h. Unbound sensitizer was removed by washing the cells once with fresh culture medium. The plates were illuminated at room temperature, from their bottom side, for 10 min (650<λ<800 nm, 12 J/cm^2). The light source was a 100 W Halogen lamp (Osram, Germany) equipped with a <650 nm cutoff and a 4-cm water filter. The cultures were placed in the culture incubator and cell survival was determined 24 h after illumination, by Neutral Red viability assay. Cell survival was calculated as the percent of the dye accumulated in the untreated controls. Triplicate determinations were conducted and representative experiments are shown. […]
The phototoxicity of compounds 5, 7, 9, and 11 on H5V mouse endothelial cells was determined as described in section (iv) (a) above. […]

[3] = test system: E. coli; assay: Phototoxicity on Gram-negative bacteria, colony counting; format: cell-based, E. coli XL-1
Method: (ii) Bacterial cultures. Bacteria of strains St. albus and E. coli XL-1 were cultured in liquid LB medium (E. coli in LB containing 12.5 μg tetracyclin/ml) to a final density of OD600 nm=0.5-0.9 (1 OD=8×10^8 bacteria/ml). The bacteria were spun down (4000×g, 5 min.) and resuspended in PBS.
(b) Bacterial. To determine the photodynamic efficacy, bacteria were diluted to aliquots of 300 μl containing about 10^7 bacteria, and incubated with increasing concentrations of sensitizer in plastic test tubes in the dark for 1 h at room temperature, and then illuminated at 70 mW/cm^2 for 15 min. Samples of the treated bacteria cultures were subsequently plated at different dilutions (50-200 bacteria/plate) on LB agar and cultured for 24 h at 37° C. for determination of bacterial survival by colony counting. Triplicate determinations were conducted and representative experiments are shown.
The phototoxicity of positively-charged compound 5 was tested on Gram-positive St. albus and Gram-negative E. coli bacteria in comparison to the negatively-charged Pd 3^1-oxo-15-methoxycarbonylmethyl-Rhodobacteriochlorin 13^1-(2-sulfoethyl)amide dipotassium salt (described in PCT/IL03/00973). Bacteria were incubated with increasing concentrations of the sensitizers for 1 h and illuminated or kept in the dark. […] Gram-positive bacteria St. albus, was 100 times more sensitive to compound 5 than Gram-negative E. coli. No phototoxicity was observed when bacteria were incubated and treated with the same sensitizers' concentration range without illumination (dark controls).

Q: With “3^1-Oxo-15-methoxycarbonylmethyl-Rhodo-bacteriochlorin 13^1,17^3-di(2-N^3-trimethylammoniumethyl)amide dicitrate salt [Compound 5]” as the substance, how does the “levels of the sensitizer in organs” value ([1]; 30 min after injection) read?
A: The value was “relatively high in the blood, kidneys and lungs”.

Q: And the “level of the sensitizer in the blood” value ([1]; 24 h after injection)?
A: Its value is “almost background level”.

Q: And the “levels of the sensitizer in organs” value ([1]; 24 h after injection)?
A: Its value is “significant levels were still found in the kidneys, liver and spleen”.

Q: What about the “incubation time at which very high PDT efficiency is reached” value [2] of the same substance?
A: The value was “less than 5 minutes”.

Q: What about the “death of E. coli” value ([3]; 10 μM, illuminated) of the same substance?
A: The value was roughly 100%.

Q: And the phototoxic concentration ([3]; 1 h incubation, illuminated 15 min at 70 mW/cm^2, read-out: Kd (phototoxicity))?
A: The phototoxic concentration was 1700 nM.

Source: patent US8207154B2, “Catatonic bacteriochlorophyll derivatives” (Yeda Research and Development Co., Ltd., priority 2005, dated 2012)
